Reference: patent US20160128944A1, “COATED PARTICLES AND COMPOSITIONS COMPRISING SAME” (VYOME BIOSCIENCES PVT. LTD., priority 2013, published 2016)
Where two headings read alike, the source gives them in different places.

Test system: M. furfur
Description: The time-kill assays are used to evaluate efficacy of antimicrobial agents, either singly or in combination, and the results can help in establishing the dose and/or time of application of the active. The time-kill assays can be used to study both concentration-dependent and time-dependent antimicrobial action.
Method: M. furfur cells were suspended in Sabouraud Dextrose Broth (SDB) at inoculum concentration of 7×10^7 cells/ml. Cells were taken from a freshly growing (3-7 days old) plate and cell suspension is vortexed to remove the cell clumps as much as possible. Sterile media were supplemented with chloramphenicol (0.25 mg/ml), cycloheximide (0.04 mg/ml) and olive oil (2%). The media were then supplemented with appropriate concentrations (two-fold serial dilutions using SDB) of zinc pyrithione powder (10 μg/ml and 50 μg/ml) with different concentrations of Capmul 908-P […]. The cultures were incubated on a tube rotator at 34° C. in CO2 incubator.
To measure the colony forming units (CFU), at different time points, aliquots (50 μl) of Malassezia cultures were serially diluted with SDBT medium (SDB containing 0.1% Triton X-100) and plated on SDA plates. The plates were incubated at 34° C. in CO2 incubator for 3 days. The viable colonies were counted and converted to CFU/ml.

Q: Which results are given for zinc pyrithione [ZPT]?
A: Log CFU Count of M. furfur (ZPT 10 μg/ml, Capmul 908-P 30 μg/ml, 6 hrs): 6.50 Log CFU; Log CFU Count of M. furfur (ZPT 10 μg/ml, Capmul 908-P 30 μg/ml, 24 hrs): 5.94 Log CFU; Log CFU Count of M. furfur (ZPT 10 μg/ml, Capmul 908-P 30 μg/ml, 48 hrs): 5.06 Log CFU; Log CFU Count of M. furfur (ZPT 10 μg/ml, Capmul 908-P 50 μg/ml, 6 hrs): 6.37 Log CFU; Log CFU Count of M. furfur (ZPT 10 μg/ml, Capmul 908-P 50 μg/ml, 24 hrs): 5.57 Log CFU; Log CFU Count of M. furfur (ZPT 10 μg/ml, Capmul 908-P 50 μg/ml, 48 hrs): 4.80 Log CFU; Log CFU Count of M. furfur (ZPT 10 μg/ml, Capmul 908-P 90 μg/ml, 6 hrs): 6.33 Log CFU; Log CFU Count of M. furfur (ZPT 10 μg/ml, Capmul 908-P 90 μg/ml, 24 hrs): 5.55 Log CFU; Log CFU Count of M. furfur (ZPT 10 μg/ml, Capmul 908-P 90 μg/ml, 48 hrs): 4.77 Log CFU; Log CFU Count of M. furfur (ZPT 10 μg/ml, Capmul 908-P nil, 6 hrs): 6.56 Log CFU; Log CFU Count of M. furfur (ZPT 10 μg/ml, Capmul 908-P nil, 24 hrs): 6.13 Log CFU; Log CFU Count of M. furfur (ZPT 10 μg/ml, Capmul 908-P nil, 48 hrs): 5.27 Log CFU; Log CFU Count of M. furfur (ZPT 50 μg/ml, Capmul 908-P 30 μg/ml, 6 h): 6.06 Log CFU; Log CFU Count of M. furfur (ZPT 50 μg/ml, Capmul 908-P 30 μg/ml, 24 h): 4.69 Log CFU; Log CFU Count of M. furfur (ZPT 50 μg/ml, Capmul 908-P 30 μg/ml, 48 h): 3.25 Log CFU; Log CFU Count of M. furfur (ZPT 50 μg/ml, Capmul 908-P 50 μg/ml, 6 h): 5.94 Log CFU; Log CFU Count of M. furfur (ZPT 50 μg/ml, Capmul 908-P 50 μg/ml, 24 h): 4.62 Log CFU; Log CFU Count of M. furfur (ZPT 50 μg/ml, Capmul 908-P 50 μg/ml, 48 h): 3.04 Log CFU; Log CFU Count of M. furfur (ZPT 50 μg/ml, Capmul 908-P 90 μg/ml, 6 h): 5.52 Log CFU; Log CFU Count of M. furfur (ZPT 50 μg/ml, Capmul 908-P 90 μg/ml, 24 h): 3.63 Log CFU; Log CFU Count of M. furfur (ZPT 50 μg/ml, Capmul 908-P 90 μg/ml, 48 h): 2.08 Log CFU; Log CFU Count of M. furfur (ZPT 50 μg/ml, Capmul 908-P nil, 6 h): 6.43 Log CFU; Log CFU Count of M. furfur (ZPT 50 μg/ml, Capmul 908-P nil, 24 h): 5.39 Log CFU; Log CFU Count of M. furfur (ZPT 50 μg/ml, Capmul 908-P nil, 48 h): 3.92 Log CFU; anti-microbial activity towards M. furfur in combination with propylene glycol monocaprylate (time-kill, ZPT 10 and 50 μg/ml with Capmul 908-P): potentiated with increasing concentration of propylene glycol monocaprylate
